Patent US8163929B2, “Dihydropyridone amides as P2X7 modulators” (Roche Palo Alto LLC, priority 2008, dated 2012)

Molecular target: T1, P2X7 (UniProt Q99572)
T1 sequence (Q99572 1-595): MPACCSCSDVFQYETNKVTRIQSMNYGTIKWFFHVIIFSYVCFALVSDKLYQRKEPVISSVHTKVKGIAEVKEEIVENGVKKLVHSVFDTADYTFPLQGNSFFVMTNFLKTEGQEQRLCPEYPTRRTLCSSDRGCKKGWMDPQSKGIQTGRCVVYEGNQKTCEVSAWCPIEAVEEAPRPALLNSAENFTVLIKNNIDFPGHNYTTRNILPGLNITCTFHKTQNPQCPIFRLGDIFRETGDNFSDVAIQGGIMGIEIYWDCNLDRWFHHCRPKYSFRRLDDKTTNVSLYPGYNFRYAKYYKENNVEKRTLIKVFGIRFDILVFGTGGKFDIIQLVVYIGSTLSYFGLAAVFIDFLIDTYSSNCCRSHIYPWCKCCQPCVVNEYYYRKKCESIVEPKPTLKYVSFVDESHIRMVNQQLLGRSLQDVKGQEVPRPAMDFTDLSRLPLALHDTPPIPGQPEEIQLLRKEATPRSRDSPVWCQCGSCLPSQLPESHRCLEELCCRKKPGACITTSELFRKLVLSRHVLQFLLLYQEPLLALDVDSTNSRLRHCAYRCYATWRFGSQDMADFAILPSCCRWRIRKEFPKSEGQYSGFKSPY
Assay: P2X7 activity of Table 1
Format: cell-based
Settings: pIC50 values for P2X7
Experimental: Stock solutions of compounds were prepared from powders as a 10 mM DMSO stock solution. These solutions were stored at RT during the two week period of these experiments to prevent freeze-thaw of the DMSO stocks. The DMSO stocks were added to the appropriate assay buffer at a concentration of 10 μM, and then diluted serially to the final concentrations that were tested. […] The aqueous solutions of compounds as well as ATP (Sigma A7699) and BzATP (Sigma B6396) were prepared fresh for each day of experiment.
1321N1 cells stably expressing the full length human P2X7 gene (1321N1-hP2X7) and HEK293 cells stably expressing the full length rat P2X7 gene (HEK293-rP2X7) were obtained from the Roche Cell Culture Facility. 1321N1-hP2X7 cells were grown in Dulbecco's Modified Eagle's Medium (DMEM) high glucose supplemented with 10% FBS and 250 μg/mL G418. HEK293-rP2X7 cells were grown in DMEM/F-12 supplemented with 10% FBS, 1 mM CaCl2, 2 mM MgCl2, 2 mM L-Glutamine and 500 μg/ml G418. Cells were split such that they never became >70% confluent.
On the day prior to the experiment, 1321N1-hP2X7 or HEK293-rP2X7 cells were released into suspension with calcium-free PBS+Versene and washed by centrifugation with calcium-free PBS to remove the Versene. Cells were resuspended in growth medium at a density of 2.5×10^5 cells/mL and seeded into black walled, clear bottom 96 well plates (50,000 cells/well) approximately 18 hr prior to intracellular calcium flux experiments.
On the day of the experiment, plates were washed with FLIPR buffer (calcium- and magnesium-free Hank's Balanced Salt Solution (HBSS) supplemented with 10 mM Hepes, 2.5 mM probenecid and 2 mM calcium chloride) using a BIO-TEK 96 channel plate washer and incubated with […] fluo-3 dye at 37° C. for one hr. The dye was then removed by plate washing and the cells were allowed to equilibrate for 20 min at room temperature with antagonist or vehicle (FLIPR buffer). Agonist (100 μM BzATP final concentration for hP2X7; 5 μM BzATP final concentration or rP2X7) was added online with the FLIPR and fluorescence measurements made at 1 sec intervals for 60 sec followed by 3 sec intervals for a further 4 min (5 min total). A final addition of 5 μM ionomycin was made and the maximal BzATP-evoked fluorescence normalized to the maximal ionomycin-evoked fluorescence.

Row | Compound | pIC50
1 | Cc1ccc(-c2ccn(CCO)n2)cc1NC(=O)C1=CNC(=O)C[C@H]1c1cccc(Cl)c1 (stereo in doubt) [Compound 114, 4-(3-Chloro-phenyl)-6-oxo-1,4,5,6-tetrahydro-pyridine-3-carboxylic acid {5-[1-(2-hydroxy-ethyl)-1H-pyrazol-3-yl]-2-methyl-phenyl}-amide] | 7.56
2 | Cc1ccc(-n2cccc2)cc1NC(=O)C1=CNC(=O)CC1c1cccc(F)c1 (centres unmarked) [Compound 1, 4-(3-Fluoro-phenyl)-6-oxo-1,4,5,6-tetrahydro-pyridine-3-carboxylic acid (2-methyl-5-pyrrol-1-yl-phenyl)-amide] | 6.985
3 | Cc1ccc(-c2cc(C)n(CCO)n2)cc1NC(=O)C1=CNC(=O)C[C@H]1c1ccc(F)cc1 [Compound 2, (S)-4-(4-Fluoro-phenyl)-6-oxo-1,4,5,6-tetrahydro-pyridine-3-carboxylic acid {5-[1-(2-hydroxy-ethyl)-5-methyl-1H-pyrazol-3-yl]-2-methyl-phenyl}-amide] | 7.735
4 | Cc1ccc(-c2nnn(C)n2)cc1NC(=O)C1=CNC(=O)C[C@H]1c1ccc(F)cc1 [Compound 3, (S)-4-(4-Fluoro-phenyl)-6-oxo-1,4,5,6-tetrahydro-pyridine-3-carboxylic acid [2-methyl-5-(2-methyl-2H-tetrazol-5-yl)-phenyl]-amide] | 6.21
5 | Cc1ccc(-c2cc(C)n(C)n2)cc1NC(=O)C1=CNC(=O)C[C@H]1c1ccc(F)cc1 [Compound 4, (S)-4-(4-Fluoro-phenyl)-6-oxo-1,4,5,6-tetrahydro-pyridine-3-carboxylic acid [5-(1,5-dimethyl-1H-pyrazol-3-yl)-2-methyl-phenyl]-amide] | 7.715
6 | Cc1ccc(-c2cc[nH]n2)cc1NC(=O)C1=CNC(=O)C[C@H]1c1ccc(F)cc1 [Compound 5, (S)-4-(4-Fluoro-phenyl)-6-oxo-1,4,5,6-tetrahydro-pyridine-3-carboxylic acid [2-methyl-5-(1H-pyrazol-3-yl)-phenyl]-amide] | 7.745
7 | Cc1ccc(-c2ccc(C)c(NC(=O)C3=CNC(=O)C[C@H]3c3ccc(F)cc3)c2)nc1 [Compound 6, (S)-4-(4-Fluoro-phenyl)-6-oxo-1,4,5,6-tetrahydro-pyridine-3-carboxylic acid [2-methyl-5-(5-methyl-pyridin-2-yl)-phenyl]-amide] | 7.07
8 | Cc1ccc(-c2cc(C)n(CC(C)O)n2)cc1NC(=O)C1=CNC(=O)C[C@H]1c1ccc(F)cc1 (stereo partly drawn) [Compound 7, (S)-4-(4-Fluoro-phenyl)-6-oxo-1,4,5,6-tetrahydro-pyridine-3-carboxylic acid {5-[1-(2-hydroxy-propyl)-5-methyl-1H-pyrazol-3-yl]-2-methyl-phenyl}-amide] | 7.643
9 | Cc1ccc(-c2ccnn2CC(C)C)cc1NC(=O)C1=CNC(=O)C[C@H]1c1ccc(F)cc1 [Compound 8, (S)-4-(4-Fluoro-phenyl)-6-oxo-1,4,5,6-tetrahydro-pyridine-3-carboxylic acid [5-(2-isobutyl-2H-pyrazol-3-yl)-2-methyl-phenyl]-amide] | 6.367
10 | Cc1ccc(-c2nnnn2C)cc1NC(=O)C1=CNC(=O)C[C@H]1c1ccc(F)cc1 [Compound 9, (S)-4-(4-Fluoro-phenyl)-6-oxo-1,4,5,6-tetrahydro-pyridine-3-carboxylic acid [2-methyl-5-(1-methyl-1H-tetrazol-5-yl)-phenyl]-amide] | 6.1767
11 | Cc1ccc(-c2ccc(C)c(NC(=O)C3=CNC(=O)C[C@H]3c3ccc(F)cc3)c2)cn1 [Compound 10, (S)-4-(4-Fluoro-phenyl)-6-oxo-1,4,5,6-tetrahydro-pyridine-3-carboxylic acid [2-methyl-5-(6-methyl-pyridin-3-yl)-phenyl]-amide] | 6.653
12 | Cc1ccc(-n2cccn2)cc1NC(=O)C1=CNC(=O)C[C@H]1c1ccc(F)cc1 [Compound 11, (S)-4-(4-Fluoro-phenyl)-6-oxo-1,4,5,6-tetrahydro-pyridine-3-carboxylic acid (2-methyl-5-pyrazol-1-yl-phenyl)-amide] | 7.763
13 | Cc1cc(-c2ccc(C)c(NC(=O)C3=CNC(=O)C[C@H]3c3ccc(F)cc3)c2)n(CCO)n1 [Compound 12, (S)-4-(4-Fluoro-phenyl)-6-oxo-1,4,5,6-tetrahydro-pyridine-3-carboyxlic acid {5-[2-(2-hydroxy-ethyl)-5-methyl-2H-pyrazol-3-yl]-2-methyl-phenyl}-amide] | 6.913
14 | Cc1ccc(-c2ccnn2C)cc1NC(=O)C1=CNC(=O)C[C@H]1c1ccc(F)cc1 [Compound 13, (S)-4-(4-Fluoro-phenyl)-6-oxo-1,4,5,6-tetrahydro-pyridine-3-carboxylic acid [2-methyl-5-(2-methyl-2H-pyrazol-3-yl)-phenyl]-amide] | 7.033
15 | CCc1cc(-c2ccc(C)c(NC(=O)C3=CNC(=O)C[C@H]3c3ccc(F)cc3)c2)[nH]n1 [Compound 14, (S)-4-(4-Fluoro-phenyl)-6-oxo-1,4,5,6-tetrahydro-pyridine-3-carboxylic acid [5-(5-ethyl-2H-pyrazol-3-yl)-2-methyl-phenyl]-amide] | 6.913
16 | Cc1ccc(-c2[nH]nc(C)c2C)cc1NC(=O)C1=CNC(=O)C[C@H]1c1ccc(F)cc1 [Compound 15, (S)-4-(4-Fluoro-phenyl)-6-oxo-1,4,5,6-tetrahydro-pyridine-3-carboxylic acid [5-(4,5-dimethyl-2H-pyrazol-3-yl)-2-methyl-phenyl]-amide] | 7.79
17 | Cc1ccc(-n2ncc(=O)[nH]c2=O)cc1NC(=O)C1=CNC(=O)C[C@H]1c1ccc(F)cc1 [Compound 16, (S)-4-(4-Fluoro-phenyl)-6-oxo-1,4,5,6-tetrahydro-pyridine-3-carboxylic acid [5-(3,5-dioxo-4,5-dihydro-3H-[1,2,4]triazin-2-yl)-2-methyl-phenyl]-amide] | 7.23
18 | CCc1cc(-c2cccc(NC(=O)C3=CNC(=O)C[C@H]3c3ccc(F)cc3)c2)n[nH]1 [Compound 17, (S)-4-(4-Fluoro-phenyl)-6-oxo-1,4,5,6-tetrahydro-pyridine-3-carboxylic acid [3-(5-ethyl-1H-pyrazol-3-yl)-phenyl]-amide] | 6.073
19 | Cc1cc(-c2cccc(NC(=O)C3=CNC(=O)C[C@H]3c3ccc(F)cc3)c2)nn1C [Compound 18, (S)-4-(4-Fluoro-phenyl)-6-oxo-1,4,5,6-tetrahydro-pyridine-3-carboxylic acid [3-(1,5-dimethyl-1H-pyrazol-3-yl)-phenyl]-amide] | 5.72
20 | Cc1ccc(-c2cc(C)n(C[C@@H](O)CO)n2)cc1NC(=O)C1=CNC(=O)C[C@H]1c1ccc(F)cc1 [Compound 19, (S)-4-(4-Fluoro-phenyl)-6-oxo-1,4,5,6-tetrahydro-pyridine-3-carboxylic acid {5-[1-((R)-2,3-dihydroxy-propyl)-5-methyl-1H-pyrazol-3-yl]-2-methyl-phenyl}-amide] | 7.423
21 | Cc1cc(-c2cccc(NC(=O)C3=CNC(=O)C[C@H]3c3ccc(F)cc3)c2)n(C)n1 [Compound 20, (S)-4-(4-Fluoro-phenyl)-6-oxo-1,4,5,6-tetrahydro-pyridine-3-carboxylic acid [3-(2,5-dimethyl-2H-pyrazol-3-yl)-phenyl]-amide] | 5.31
22 | Cc1cc(-c2ccc(C)c(NC(=O)C3=CNC(=O)C[C@H]3c3ccc(F)cc3)c2)n(C)n1 [Compound 21, (S)-4-(4-Fluoro-phenyl)-6-oxo-1,4,5,6-tetrahydro-pyridine-3-carboxylic acid [5-(2,5-dimethyl-2H-pyrazol-3-yl)-2-methyl-phenyl]-amide] | 6.525
23 | Cc1cc(-c2ccc(C)c(NC(=O)C3=CNC(=O)C[C@H]3c3cccc(F)c3)c2)n[nH]1 [Compound 22, (S)-4-(3-Fluoro-phenyl)-6-oxo-1,4,5,6-tetrahydro-pyridine-3-carboxylic acid [2-methyl-5-(5-methyl-1H-pyrazol-3-yl)-phenyl]-amide] | 7.75
